Measured values: PMC2438350, “Comparison of four different colorimetric and fluorometric cytotoxicity assays in a zebrafish liver cell line” (BMC Pharmacology, 2008)

Key:
Type in all cases: cell-based, zebrafish (Danio rerio)
ZFL cells [1] = assay: LDH assay (released lactate dehydrogenase activity), cytotoxicity; details: for EC10 (10% loss of cell viability): 24 h exposure, 1% FBS, mean ± SD of three experiments; for EC50: read-out: EC50 (50% loss of cell viability), 24 h exposure, 1% FBS, mean ± SD of three experiments
Protocol: (§1) Each compound was dissolved in dimethyl sulfoxide (DMSO) and diluted in a way that all stock solutions were 200 times concentrated compared to the final test concentrations. Concentration ranges were 30 pM-1.97 μM for BaP, 5 nM-5 μM for Flus, 5 nM-11 μM for Tam, and 0.2–43 μM for 4-OHT, which is in the range of in vivo studies with waterborne exposure of zebrafish for BaP, Tam, and 4-OHT [20-22, 29]. For Flusilazole, no studies on fish are available.
(§2) For finding the optimal biological test conditions, in the beginning different cell densities were applied using two-fold dilution series in the range of 780–100,000 cells/well and cell viability tests were performed after 24 h. […] Thus, cells were plated in 96 well flat-bottom plates at an initial cell density of 25,000 cells/well in 200 μL of medium and allowed to settle for 24 h. In parallel, wells containing only medium without cells were prepared and used later on for background correction. After the pre-incubation period, for each test compound and each concentration, 1 μL of the DMSO stock solutions was added so that the final DMSO content was 0.5%. All tests were performed at least three times and each time in triplicate.
A second set of cells was exposed to the test compounds for the LDH assay, which was performed using the Cytotoxicity Detection Kit LDH (Roche). For this assay, a positive control, leading to 100% cytotoxicity by lysing the cells completely, was included in the assay. The positive control was 2% Triton X-100 solution in the assay medium, as proposed by the manufacturer. After pre-incubation of the cells, before addition of the test compounds, the growth medium was exchanged from medium containing 5% FBS to medium containing only 1% FBS. Then, test compounds in DMSO were dosed and plates incubated as for the other assays for 24 h. For testing the released LDH activity, 100 μL of culture medium were transferred to a new 96 well plate. 100 μL of the reaction solution from the kit, containing the detection dye and the catalyst were then added and absorption was measured after 30 min at 490 nm with 655 nm as reference wavelength in an ELISA reader (Model 680, Biorad). As for the other assays, background values from wells without cells were subtracted and average values for the triplicates calculated. Cytotoxicity was then calculated according to the following equation: Cytotoxicity (%) = (experimental value - DMSO control)/(positive control - DMSO control) × 100.
(§3) For each single assay, data were evaluated separately for three independent experiments. Dose-response curves were fitted using a nonlinear-regression sigmoidal dose-response curve model provided in the GraphPad Prism software (GraphPad software, Inc., San Diego, USA). EC10 and EC50 values were derived from these fitted curves for the single experiments. Final EC-values (Table 1) were calculated as average of three independent experiments with the standard deviation of the mean indicating the variation. Data from the different assays were statistically compared using One way ANOVA analysis with Tukey's test as post-ANOVA analysis (p < 0.05).

ZFL cells [2] = assay: MTT assay, cytotoxicity; details: for EC10 (10% loss of cell viability): 24 h exposure, mean ± SD of three experiments; for EC50: read-out: EC50 (50% loss of cell viability), 24 h exposure, mean ± SD of three experiments
Protocol: as §1, §2
The MTT assay was performed using the cell proliferation kit I MTT (Roche) according to the manufacturer's protocol. In brief, after 24 h of incubation with the test compounds, 100 μL of medium were removed from each well. Then, 10 μL of the MTT solution were added and plates incubated for 4 h at 28°C. Since the manufacturer recommends incubation at 37°C and ZFL cells have to be incubated at 28°C, we tested different incubation times with MTT (2, 4, and 6 h) to establish optimized conditions. […] After the incubation with MTT, the solubilization solution was added and plates incubated over night. The next day, absorption of the produced formazan was measured at 570 nm with 680 nm as reference wavelength using a microplate reader (Infinite 200, Tecan). For data evaluation, background and reference wavelength corrected absorption values were averaged for the triplicates and expressed as "% cytotoxicity" referring to the untreated control containing only the solvent DMSO.
as §3

ZFL cells [3] = assay: CFDA-AM assay, cytotoxicity; details: for EC10 (10% loss of cell viability): 24 h exposure, mean ± SD of three experiments; for EC50: read-out: EC50 (50% loss of cell viability), 24 h exposure, mean ± SD of three experiments
Protocol: as §1, §2
(§4) The fluorogenic indicator dyes alamarBlue® (AB) (BioSource, Invitrogen) and CFDA-AM (5-carboxyfluorescein diacetate acetoxymethyl ester; Molecular Probes, Invitrogen) were used in combination on a third set of cells, since it was shown before that their fluorescent products can be detected at different non-interfering wavelengths. AB was obtained as ready-to-use stock solution, which had to be diluted 200 times to obtain the working solution. CFDA-AM powder was dissolved in DMSO to a stock solution of 4 mM, which was diluted 1000 times to reach the 4 μM working solution. […] For this purpose, cells were exposed to the dyes dissolved in culture medium without FBS or in Earle's-G medium. […] The AB/CFDA-AM assay was then performed according to [10]. In brief, after 24 h of incubation with the test compounds, the medium was aspirated off completely and 100 μL/well of the alamarBlue/CFDA-AM working solution were added. After 30 min of incubation, fluorescence was measured at 530 nm excitation/590 nm emission for AB and 485 nm/535 nm for CFDA-AM, respectively, using a fluorescence plate reader (Infinite 200, Tecan). For data evaluation, average values of triplicates were calculated after background correction and all average values for the treatments referred to the DMSO control, in order to express data as "% cytotoxicity".
as §3

ZFL cells [4] = assay: alamarBlue (AB) assay, cytotoxicity; details: for EC10 (10% loss of cell viability): 24 h exposure, mean ± SD of three experiments; for EC50: read-out: EC50 (50% loss of cell viability), 24 h exposure, mean ± SD of three experiments
Protocol: as §1, §2, §4, §3

Compound	EC10 (10% loss of cell viability) (ZFL cells [1]) [µM]	EC50 (ZFL cells [1]) [µM]	EC10 (10% loss of cell viability) (ZFL cells [2]) [µM]	EC50 (ZFL cells [2]) [µM]	EC10 (10% loss of cell viability) (ZFL cells [3]) [µM]	EC50 (ZFL cells [3]) [µM]	EC10 (10% loss of cell viability) (ZFL cells [4]) [µM]	EC50 (ZFL cells [4]) [µM]	EC50 (ZFL cells [1]; Danio rerio) [µM]	EC50 (ZFL cells [2]; Danio rerio) [µM]	EC50 (ZFL cells [3]; Danio rerio) [µM]	EC50 (ZFL cells [4]; Danio rerio) [µM]
CC/C(=C(\c1ccc(O)cc1)c1ccc(OCCN(C)C)cc1)c1ccccc1.Cl [4-OH-Tamoxifen, trans-4-Hydroxy-Tamoxifen]	0.73 ± 0.55	1.62 ± 0.01	1.49 ± 0.82	1.78 ± 0.4	1.08 ± 0.62	1.73 ± 0.67	0.79 ± 0.40	1.17 ± 0.24				
C[Si](Cn1cncn1)(c1ccc(F)cc1)c1ccc(F)cc1 [Flusilazole]	2.28 ± 3.12		11.29 ± 5.88		6.49 ± 1.08		16.13 ± 11.44		17.4 ± 14.5	18.4 ± 14.1	16.7 ± 4.76	26.4 ± 7.3
CC/C(=C(\c1ccccc1)c1ccc(OCCN(C)C)cc1)c1ccccc1 [Tamoxifen]	0.61 ± 0.67		1.39 ± 0.77		2.52 ± 2.14		1.37 ± 0.33					
